Drawing on ChEMBL document CHEMBL5537211, “Synthesis and Antifungal Activity of Stereoisomers of Mefloquine Analogs” (2024), this text covers MIC and Selectivity ratio for 10 molecules.

Holding throughout (format): functional
Assay [1] has as its system Cryptococcus neoformans. Briefly: Antifungal activity against Cryptococcus neoformans H99 assessed as fungal growth inhibition incubated for 72 hrs by CLSI protocol based microbroth dilution assay. (Dilution methods test growth across graded concentrations, often in twofold steps.)
Assay [2] relates to Candida albicans. The assay can be described thus: Antifungal activity against Candida albicans SC5314 assessed as fungal growth inhibition incubated for 24 hrs by CLSI protocol based microbroth dilution assay.
Assay [3] has as its system Cryptococcus neoformans. The assay can be described thus: Antifungal activity against Cryptococcus neoformans.
Assay [4] relates to Candida albicans. Briefly: Antifungal activity against Candida albicans.
Assay [5] can be described thus: Selectivity ratio of MIC for antifungal activity against Candida albicans SC5314 to MIC for antifungal activity against Cryptococcus neoformans H99.
For assay [6], the system named is Cryptococcus neoformans. The assay can be described thus: Antifungal activity against Cryptococcus neoformans by CLSI M27-A3 protocol based absorbance assay.
Assay [7] deals with Candida albicans. Briefly: Antifungal activity against Candida albicans by CLSI M27-A3 protocol based absorbance assay.

One may read the MIC as the smallest concentration in the dilution series that meets the test's criterion for growth inhibition.

≈ marks a conversion by molar mass, not a printed value.

Regarding `O[C@@H](c1cc(-c2ccc(Cl)cc2)nc2c(Cl)cccc12)[C@H]1CCCCN1`, the minimum inhibitory concentration (MIC) in the assay on Cryptococcus neoformans [1] turned out to be 1 µg/mL (≈ 2.58 µM); in the assay with Candida albicans [2] it was 4 µg/mL (≈ 10.3 µM).
Take `OC(c1cc(C2CC3CCC2CC3)nc2c(Cl)cc(Cl)cc12)C1CCCCN1` (racemic): the results for the MIC against Cryptococcus neoformans [3] and with Candida albicans [4] were 0.4 µg/mL (≈ 0.954 µM) and 1.5 µg/mL (≈ 3.58 µM), respectively.
With `O[C@H](c1cc(-c2ccc(Cl)cc2)nc2c(Cl)cccc12)[C@H]1CCCCN1`, the minimal inhibitory concentration (MIC) in the assay on Cryptococcus neoformans [1] amounted to 2 µg/mL (≈ 5.16 µM); with Candida albicans [2], 8 µg/mL (≈ 20.7 µM).
The like results for `Cl.O[C@@H](c1cc(-c2ccc(Cl)cc2)nc2ccccc12)[C@H]1CCCCN1` (racemic) were, in that order, 8 µg/mL and 16 µg/mL.
For the molecule `OC(Cn1cncn1)(Cn1cncn1)c1ccc(F)cc1F` [FLUCONAZOLE], the minimum inhibitory concentration (MIC) in the assay on Cryptococcus neoformans [1] is 2 µg/mL (≈ 6.53 µM); with Candida albicans [2], at most 0.125 µg/mL.
Turning to `O[C@@H](c1cc(C(F)(F)F)nc2c(C(F)(F)F)cccc12)[C@H]1CCCCN1` (racemic) [(S,R)-MEFLOQUINE], the minimum inhibitory concentration (MIC) is 16 µg/mL (≈ 42.3 µM) in the assay with Cryptococcus neoformans [1], 128 µg/mL (≈ 338 µM) in the assay with Candida albicans [2], 32 µg/mL (≈ 84.6 µM) in the assay on Cryptococcus neoformans [3] and above 128 µg/mL against Candida albicans [4]. In assay [5], the Selectivity ratio was determined as 8.
Take `O[C@@H](c1cc(-c2ccc(Cl)cc2)nc2c(Cl)cccc12)[C@@H]1CCCCN1`: the MIC was determined as 2 µg/mL (≈ 5.16 µM) in the assay on Cryptococcus neoformans [1] and 8 µg/mL (≈ 20.7 µM) with Candida albicans [2].
The like results for `Cl.O[C@@H](c1cc(-c2ccc(Cl)cc2)nc2ccccc12)[C@@H]1CCCCN1` (racemic) were, in that order, 16 µg/mL and 64 µg/mL.
Take `OC(c1cc(-c2ccc(Cl)cc2)nc2c(Cl)cccc12)C1CCCCN1` (racemic): the minimum inhibitory concentration (MIC) came to 2 µg/mL (≈ 5.16 µM) in the assay on Cryptococcus neoformans [1], 8 µg/mL (≈ 20.7 µM) with Candida albicans [2], 1 µg/mL (≈ 2.58 µM) against Cryptococcus neoformans [6] and 4 µg/mL (≈ 10.3 µM) with Candida albicans [7].
Take `O[C@H](c1cc(-c2ccc(Cl)cc2)nc2c(Cl)cccc12)[C@@H]1CCCCN1`: the MIC in the assay on Cryptococcus neoformans [1] came out at 1 µg/mL (≈ 2.58 µM); with Candida albicans [2], 4 µg/mL (≈ 10.3 µM).
